In patent publication US10947188B2, “Small molecule ferroptosis inducers” (THE TRUSTEES OF COLUMBIA UNIVERSITY IN THE CITY OF NEW YORK, priority 2016, dated 2021):

Tested on: BJeLR
Assay: Modulatory profiling: Alamar Blue viability, lethal compound cotreated with death modulator (EC50, AUC)
Assay type: cell-based, human
Parameters: AUC, modulator BJ.Gd3+ / AUC, modulator BJ.LNAME / AUC, modulator BJ.Lmin / AUC, modulator BJ.3MA / AUC, modulator BJ.ALLN / AUC, modulator BJ.Boc D / AUC, modulator BJ.CHX / AUC, modulator BJ.Co2+ / AUC, modulator BJ.Nec-1 / AUC, modulator BJ.Pepstatin / AUC, modulator BJ.TLCK / AUC, modulator BJ.atoc / AUC, modulator BJ.trolox / AUC, modulator BJ.zVAD: unit not given beside the values
Conditions: BJeLR cells, modulatory profile value (AUC); for AUC, modulator BJ.3MA: lethal compound cotreated with modulator 3MA; for AUC, modulator BJ.ALLN: lethal compound cotreated with modulator ALLN; for AUC, modulator BJ.Boc D: lethal compound cotreated with modulator Boc D; for AUC, modulator BJ.CHX: lethal compound cotreated with modulator CHX; for AUC, modulator BJ.Co2+: lethal compound cotreated with modulator Co2+; for AUC, modulator BJ.DPQ: lethal compound cotreated with modulator DPQ; for AUC, modulator BJ.Gd3+: lethal compound cotreated with modulator Gd3+; for AUC, modulator BJ.LNAME: lethal compound cotreated with modulator LNAME; for AUC, modulator BJ.Lmin/NAD+: lethal compound cotreated with modulator Lmin/NAD+; for AUC, modulator BJ.Lmin: lethal compound cotreated with modulator Lmin; for AUC, modulator BJ.NAD+: lethal compound cotreated with modulator NAD+; for AUC, modulator BJ.NMMA: lethal compound cotreated with modulator NMMA; for AUC, modulator BJ.Nec-1: lethal compound cotreated with modulator Nec-1; for AUC, modulator BJ.Pepstatin: lethal compound cotreated with modulator Pepstatin; for AUC, modulator BJ.TLCK: lethal compound cotreated with modulator TLCK; for AUC, modulator BJ.atoc: lethal compound cotreated with modulator atoc; for AUC, modulator BJ.trolox: lethal compound cotreated with modulator trolox; for AUC, modulator BJ.zVAD: lethal compound cotreated with modulator zVAD

Row | Structure (SMILES) | AUC, modulator BJ.3MA | AUC, modulator BJ.ALLN | AUC, modulator BJ.Boc D | AUC, modulator BJ.CHX | AUC, modulator BJ.Co2+ | AUC, modulator BJ.DPQ | AUC, modulator BJ.Gd3+ | AUC, modulator BJ.LNAME | AUC, modulator BJ.Lmin/NAD+ | AUC, modulator BJ.Lmin | AUC, modulator BJ.NAD+ | AUC, modulator BJ.NMMA | AUC, modulator BJ.Nec-1 | AUC, modulator BJ.Pepstatin | AUC, modulator BJ.TLCK | AUC, modulator BJ.atoc | AUC, modulator BJ.trolox | AUC, modulator BJ.zVAD
1 | CC[C@]1(O)C[C@H]2CN(CCc3c([nH]c4ccccc34)[C@@](C(=O)OC)(c3cc4c(cc3OC)N(C=O)[C@H]3[C@@](O)(C(=O)OC)[C@H](OC(C)=O)[C@]5(CC)C=CCN6CC[C@]43[C@@H]65)C2)C1 [Vincristine] | −0.03566 | −0.03171 | −0.005016 | 0.1955 | 0.1806 | −0.03044 | 0.007944 | −0.00717 | 0.1721 | 0.06034 | 0.1255 | −0.003354 | −0.05572 | −0.002521 | −0.01255 | 0.04717 | −0.03305 | 0.01856
2 | C[C@@H]1C[C@@H]([C@H](O)CC2CC(=O)NC(=O)C2)C(=O)[C@@H](C)C1 [cycloheximide, Cycloheximide, reference compound] | 0.03847 | 0.09461 | 0.02242 | 0.3613 | 0.2375 | 0.02122 | 0.02359 | 0.007696 | 0.1057 | 0.0775 | 0.08265 | 0.002535 | 0.03326 | 0.01475 | 0.03153 | 0.0001672 | 0.01856 | 0.02186
